Measurements published in patent US9023370B2, “Conjugates comprising nanoparticles coated with platinum containing compounds” (priority 2008, dated 2015).

Tests used:
[1] = design: species or system SCID mice; conditions: mouse, in vivo
Description: (§1) Fifteen SCID mice were choosen for the in vivo experiment. Mouse were injected 20 106 A549 lung tumoral cells in their flanks. Three random groups of five mice each were prepared. Then we waited until the tumour grew to an easily measurable size. The first group (A) was given no treatment. The second group (B) was given mild doses of commercial cisplatin (30 mg per Kg animal weight). The third group (C) was treated with the conjugates of example 4.1 with […] of 1.9 mg of platinum drug per litre in one intra-peritoneal dose. Tumour size (as a sign of therapeutical success) and animal weight (as a sign of secondary effects) were measured every three days. After fifteen days the experiments were stopped.

A549 lung tumoral cells = experiment: Animal assay: tumour size; assay type: in vivo; conditions: SCID mice, A549 flank tumours, fifteen days; cisplatin 30 mg per Kg; example 4.1 100 ml of 1.9 mg platinum drug per litre, one intra-peritoneal dose
Description: as §1

[2] = Zeta potential of nanoparticles and conjugates; assay type: physicochemical; conditions: pH 7.0
Description: The zeta potential of nanoparticles and conjugates was determined using a Malvern ZetaSizer Analyzer (Malvern Instruments, UK). These measurements were performed with control of the pH (7.0).

A549 tumor cells = experiment: MTT assay of the conjugates in tumoral cells; assay type: cell-based, human; conditions: 48 h
Description: Cells were plated in a multiwell-96 plate (Iwaki) at 4×10^3 cells/well and 24 hours later the medium was changed for treatments. Tetrazolium salt 3-(4,5-dimethylthiazol-2-yl)-2,5-diphenyltetrazoliumbromide (MTT, Acros Organics) was used for mitochondrial activity evaluation in cell viability studies 24 and 48 hours post-treatments. Plates were measured in MicroPlate Reader Model 550 (BIO-RAD) and data were processed with Excel and SPSS software. Using absorbance measurements [time zero, (Az), control growth, (C), and test growth in the presence of drug at the various concentration levels (Ai)], the percentage growth was calculated at each of the drug concentration levels. The assays were done with three cellular cancer lines: HeLa, A549 and HEK.
A and G represent the control values at 0 and 48 h respectively.

[3] = Stability: platinum drug release after incubation, quantified by ICP-MS; assay type: physicochemical; conditions: 48 h incubation with cellular medium at 37° C.
Description: The stability of these conjugates was compared with the stability of the conjugates of the invention. […] The stability tests were based on inductively coupled plasma mass spectroscopy ICP-MS quantifications of platinum drug release after incubation of both systems.

N.N.[Cl][Pt][Cl] [commercial cisplatin, cisplatin, reference compound]
animal weight (sign of secondary effects) [1]: loose of body weight
kidney and hepatic dysfunction (preliminary biochemical measurements) [1]: did not indicate any kidney and hepatic significant dysfunction
tumour size (A549 lung tumoral cells): reduction of tumour size

AuNP(NP:13 nm)-MUA [example 2.1]
ζ-potential [2]: −65.8 mV
effect on A549 lung tumoral cells viability (MTT) (A549 tumor cells): did not elicit any response

N.N.O.O.O=[N+]([O-])[O-].O=[N+]([O-])[O-].[Pt+2] [example 3, cis-[Pt(NH3)2(H2O)2](NO3)2]
effect on A549 lung tumoral cells viability (MTT) (A549 tumor cells): did not elicit any response

AuNP(NP:4 nm)-MUA-cisplatin [example 5, reference compound]
release of platinum drug from the nanoparticle [3]: release of platinum drug from the nanoparticle was only observed
